The results in this text go back to patent US8884030B2, “Inhibitors of Flaviviridae viruses” (priority 2010, dated 2014).

The term inhibition denotes how much of the control response was suppressed.

Each structure is given as a SMILES string.

The test system of the test is human hepatoma Huh-7 cell line harboring a HCV replicon. As to the kind of experiment: HCV replicon assay (inhibition of viral replication, luciferase). Conditions: Hepatitis C virus, 72 h; 2 μM; Huh-7 HCV replicon cells, 3 days incubation; inhibition of viral replication; read-out: % inhibition at 2 μM. The class given is cell-based. The procedure:
The anti-HCV activity of the compounds of this invention was tested in a human hepatoma Huh-7 cell line harboring a HCV replicon. The assay comprised the following steps:
Step 1: Compound Preparation and Serial Dilution.
Serial dilution was performed in 100% DMSO in a 384-well plate. A solution containing a compound at 225-fold concentration of the starting final serial dilution concentration was prepared in 100% DMSO and 15 uL added to the pre-specified wells in column 3 or 13 of a polypropylene 384-well plate. The rest of the 384-well plate was filled with 10 uL 100% DMSO except for columns 23 and 24, where 10 uL of 500 uM a HCV protease inhibitor (ITMN-191) in 100% DMSO was added. The HCV protease inhibitor was used a control of 100% inhibition of HCV replication. The plate was then placed on a Biomek FX Workstation to start the serial dilution. The serial dilution was performed for ten cycles of 3-fold dilution from column 3 to 12 or from column 13 to 22.
Step 2: Cell Culture Plate Preparation and Compound Addition
To each well of a black polypropylene 384-well plate, 90 μL of cell media containing 1600 suspended Huh-7 HCV replicon cells was added with a Biotek uFlow Workstation. A volume of 0.4 μL of the compound solution was transferred from the serial dilution plate to the cell culture plate on a Biomek FX Workstation. The DMSO concentration in the final assay condition was 0.44%. The plates were incubated for 3 days at 37° C. with 5% CO2 and 85% humidity.
Step 3: Detection of Cytotoxicity and Inhibition of Viral Replication
a) Assessment of cytotoxicity: The media in the 384-well cell culture plate was aspirated with a Biotek EL405 plate-washer. A volume of 50 μL of a solution containing 400 nM Calcein AM in 100% PBS was added to each well of the plate with a Biotek uFlow Workstation. The plate was incubated for 30 minutes at room temperature before the fluorescence signal ([…]) was measured with a Perkin Elmer Envision Plate Reader.
b) Assessment of inhibition of viral replication: The calcein-PBS solution in the 384-well cell culture plate was aspirated with a Biotek EL405 plate-washer. A volume of 20 μL of Dual-Glo luciferase buffer (Promega, Dual-Glo Luciferase Assay Reagent, cat. #E298B) was added to each well of the plate with a Biotek uFlow Workstation. The plate was incubated for 10 minutes at room temperature. A volume of 20 μL of a solution containing 1:100 mixture of Dual-Glo Stop & Glo substrate(Promega, Dual-Glo Luciferase Assay Reagent, cat. #E313B) and Dual-Glo Stop & Glo buffer (Promega, Dual-Glo Luciferase Assay Reagent, cat. #E314B) was then added to each well of the plate with a Biotek uFlow Workstation. The plate was incubated at room temperature for 10 minutes before the luminescence signal was measured with a Perkin Elmer Envision Plate Reader.
The percent cytotoxicity was determined by calcein AM conversion to fluorescent product. The average fluorescent signal from the DMSO control wells were defined as 100% nontoxic. The individual fluorescent signal from testing compound treated well was divided by the average signal from DMSO control wells and then multiplied by 100% to get the percent viability. The percent anti-HCV replication activity was determined by the luminescence signal from the testing well compared to DMSO controls wells. The background signal was determined by the average luminescence signal from the HCV protease inhibitor treated wells and was subtracted from the signal from the testing wells as well as the DMSO control wells. Following 3-fold serial dilutions, the EC50 and CC50 values were calculated by fitting % inhibition at each concentration to the following equation: % inhibition=100%[(EC50/[l])^b+1]
Where b is Hill's coefficient. See, for reference, Hill, A. V., The Possible Effects of the Aggregation of the Molecules of Hæmoglobin on its Dissociation Curves, J. Physiol. 40: iv-vii. (1910). […]
(In general: A replicon is a self-replicating genome or part of one, used to study replication in cells.)
Regarding `CN(NC1CCC(N(c2cc(C#CC(C)(C)C)sc2C(=O)O)C(=O)[C@H]2CC[C@H](C)CC2)CC1)c1cnccn1` (stereo partly drawn) [Compound 80, 5-(3,3-Dimethyl-but-1-ynyl)-3-{(4-methyl-cyclohexanecarbonyl)-[4-(N′-methyl-N′-pyrazin-2-yl-hydrazino)-cyclohexyl]-amino}-thiophene-2-carboxylic acid], the inhibition at 2 µM is 99.8%.

As for `CC1CCC(C(=O)N(c2cc(C#CC(C)(C)C)sc2C(=O)O)N(C)CCO)CC1` (stereo not drawn) [Compound 135, 5-(3,3-dimethyl-but-1-ynyl)-3-[N′-(2-hydroxy-ethyl)-N′-methyl-N-(4-methyl-cyclohexanecarbonyl)-hydrazino]-thiophene-2-carboxylic acid], the inhibition at 2 µM was 99.8%.

`CC(C)(C)C#Cc1cc(N(C(=O)[C@H]2CC[C@H](C)CC2)C2CCN(C(=O)O[C@@H]3CCCN(C(=O)OC(C)(C)C)C3)CC2)c(C(=O)O)s1` [Compound 51, Boc protected 4-[[2-carboxy-5-(3,3-dimethyl-but-1-ynyl)-thiophen-3-yl]-(4-trans-methyl-cyclohexanecarbonyl)-amino]-piperidine-1-carboxylic acid piperidin-3-(R)-yl ester]: the inhibition at 2 µM was determined as 85.5%.

For the compound `CC1CCC(C(=O)N(c2cc(C#CC(C)(C)C)sc2C(=O)O)N(C)C2CCC3(CC2)OCCO3)CC1` (stereo not drawn) [Compound 122], the inhibition at 2 µM was 99.7%.

`CC1CCC(C(=O)N(c2cc(C#CC(C)(C)C)sc2C(=O)O)C2CCN(C(=O)c3cccnc3)C2)CC1` (stereo not drawn) [Compound 142, 5-(3,3-Dimethyl-but-1-ynyl)-3-{(4-methyl-cyclohexanecarbonyl)-[1-(pyridine-3-carbonyl)-pyrrolidin-3-yl]-amino}-thiophene-2-carboxylic acid]: the inhibition at 2 µM worked out at 99.6%.

Turning to `CC(C)(C)C#Cc1cc(N(C(=O)[C@H]2CC[C@H](C)CC2)C2CCN(C(=O)OC3(C)CCNC3)CC2)c(C(=O)O)s1` (stereo partly drawn) [Compound 72, 4-[[2-Carboxy-5-(3,3-dimethyl-but-1-ynyl)-thiophen-3-yl]-(trans-4-methyl-cyclohexanecarbonyl)-amino]-piperidine-1-carboxylic acid 3-methyl-pyrrolidin-3-yl ester], the inhibition at 2 µM came to 99.7%.

Take `CC(C)(C)C#Cc1cc(N(C(=O)[C@H]2CC[C@H](C)CC2)[C@H]2CCN(C(=O)O[C@@H]3CCCN(C(=O)OC(C)(C)C)C3)C2)c(C(=O)O)s1` [Compound 37, 3-(R)-{3-(S)-[[2-carboxy-5-(3,3-dimethyl-but-1-ynyl)-thiophen-3-yl]-(4-trans-methyl-cyclohexanecarbonyl)-amino]-pyrrolidine-1-carbonyloxy}-piperidine-1-carboxylic acid tert-butyl ester]: the inhibition at 2 µM was 99.6%.

For `CC(C)(C)C#Cc1cc(N(C(=O)[C@H]2CC[C@H](C)CC2)C2CCC(NC(=O)OC3CCOCC3)CC2)c(C(=O)O)s1` (stereo partly drawn) [Compound 32, 5-(3,3-dimethyl-but-1-ynyl)-3-{(4-trans-methyl-cyclohexanecarbonyl)-[4-(tetrahydro-pyran-4-yloxycarbonylamino)-cyclohexyl]-amino}-thiophene-2-carboxylic acid], the inhibition at 2 µM was determined as 100%.

As for `CC(C)(C)C#Cc1cc(N(C(=O)[C@H]2CC[C@H](C)CC2)[C@H]2CCN(C(=O)O[C@H]3CCNC3=O)C2)c(C(=O)O)s1` [Compound 43, 3-(S)-[[2-carboxy-5-(3,3-dimethyl-but-1-ynyl)-thiophen-3-yl]-(4-trans-methyl-cyclohexanecarbonyl)-amino]-pyrrolidine-1-carboxylic acid 2-oxo-pyrrolidin-3-(R)-yl ester], the inhibition at 2 µM was found to be 96.2%.

For `CC(C)(C)C#Cc1cc(N(C(=O)[C@H]2CC[C@H](C)CC2)C2CCN(C(=O)O[C@@H]3CNC(=O)C3)CC2)c(C(=O)O)s1` [Compound 56, 4-[[2-carboxy-5-(3,3-dimethyl-but-1-ynyl)-thiophen-3-yl]-(4-trans-methyl-cyclohexanecarbonyl)-amino]-piperidine-1-carboxylic acid 5-oxo-pyrrolidin-3-(S)-yl ester], the inhibition at 2 µM stood at 92.8%.

Take `CC(C)(C)C#Cc1cc(N(C(=O)[C@H]2CC[C@H](C)CC2)C2CCC(NS(=O)(=O)c3cccnc3)CC2)c(C(=O)O)s1` (stereo partly drawn) [Compound 165, 5-(3,3-dimethyl-but-1-ynyl)-3-{(4-trans-methyl-cyclohexanecarbonyl)-[4-(pyridine-3-sulfonylamino)-cyclohexyl]-amino}-thiophene-2-carboxylic acid]: the inhibition at 2 µM is 95.7%.

Turning to `CC1CCC(C(=O)N(c2cc(C#CC(C)(C)C)sc2C(=O)O)C2CCN(C(=O)c3cccnc3)CC2)CC1` (stereo not drawn) [Compound 140, 5-(3,3-dimethyl-but-1-ynyl)-3-{(4-methyl-cyclohexanecarbonyl)-[1-(pyridine-3-carbonyl)-piperidin-4-yl]-amino}-thiophene-2-carboxylic acid], the inhibition at 2 µM stood at 99.9%.

Regarding `CC(C)(C)C#Cc1cc(N(C(=O)[C@H]2CC[C@H](C)CC2)C2CCN(C(=O)OC3CCOCC3)CC2)c(C(=O)O)s1` [Compound 54, 4-[[2-carboxy-5-(3,3-dimethyl-but-1-ynyl)-thiophen-3-yl]-(4-trans-methyl-cyclohexanecarbonyl)-amino]-piperidine-1-carboxylic acid tetrahydro-pyran-4-yl ester], the inhibition at 2 µM was 99.8%.

Regarding `CC(C)(C)C#Cc1cc(N(C(=O)[C@H]2CC[C@H](C)CC2)[C@H]2CCN(C(=O)OC3CCOCC3)C2)c(C(=O)O)s1` [Compound 41, 3-(S)-[[2-carboxy-5-(3,3-dimethyl-but-1-ynyl)-thiophen-3-yl]-(4-trans-methyl-cyclohexanecarbonyl)-amino]-pyrrolidine-1-carboxylic acid tetrahydro-pyran-4-yl ester], the inhibition at 2 µM came to 99.9%.

Consider `CC1CCC(C(=O)N(c2cc(C#CC(C)(C)C)sc2C(=O)O)C2CCC(=NOCc3ccncc3)CC2)CC1` (stereo not drawn) [Compound 117, 5-(3,3-Dimethylbut-1-ynyl)-3-(4-methyl-N-(4-(pyridin-4-ylmethoxyimino)cyclohexyl)cyclohexanecarboxamido)thiophene-2-carboxylic acid], for which the inhibition at 2 µM amounted to 99.9%.

`CC(C)(C)C#Cc1cc(N(C(=O)[C@H]2CC[C@H](C)CC2)C2CCC(=NOc3ccccc3)CC2)c(C(=O)O)s1` (stereo partly drawn) [Compound 119, 5-(3,3-Dimethylbut-1-ynyl)-3-(4-methyl-N-(4-(phenoxyimino)cyclohexyl)cyclohexanecarboxamido)thiophene-2-carboxylic acid]: the inhibition at 2 µM turned out to be 97.1%.

`CC1CCC(C(=O)N(c2cc(C#CC(C)(C)C)sc2C(=O)O)C2CCC(=NOCc3ccc(S(C)(=O)=O)cc3)CC2)CC1` (stereo not drawn) [Compound 121, 3-(N-(4-(4-(Methylsulfonyl)benzyloxyimino)cyclohexyl)-4-methylcyclohexanecarboxamido)-5-(3,3-dimethylbut-1-ynyl)thiophene-2-carboxylic acid]: the inhibition at 2 µM was 99.9%.

In the case of `CC(C)(C)C#Cc1cc(N(C(=O)[C@H]2CC[C@H](C)CC2)[C@H]2CCN(C(=O)O[C@@H]3CNC(=O)C3)C2)c(C(=O)O)s1` [Compound 33, 3-(S)-[[2-carboxy-5-(3,3-dimethyl-but-1-ynyl)-thiophen-3-yl]-(4-trans-methyl-cyclohexanecarbonyl)-amino]-pyrrolidine-1-carboxylic acid 5-oxo-pyrrolidin-3-(S)-yl ester], the inhibition at 2 µM came out at 96.2%.
